Assay results published in the NIST ThermoML archive (doi:10.1021/je500381c).

Experiment: xn = mol fraction of the nth substance listed
Conditions: for mass density / viscosity: 100 kPa, Liquid; for mass density: Vibrating tube method; for surface tension liquid-gas: Drop volume

CC12CC3CC(C1)CC(C)(C3)C2 [1,3-dimethyladamantane] + CCCCCCCO
Conditions | mass density [kg/m3] | surface tension liquid-gas [mN/m] | viscosity [mPa·s]
293.15 K, x2 = 0 | 901.58 | – | 3.764
293.15 K, x2 = 0.1001 | 895.5 | – | 3.692
293.15 K, x2 = 0.199 | 889.11 | – | 3.788
293.15 K, x2 = 0.2998 | 882.35 | – | 3.972
293.15 K, x2 = 0.3997 | 875.32 | – | 4.181
293.15 K, x2 = 0.4997 | 867.82 | – | 4.522
293.15 K, x2 = 0.6002 | 859.93 | – | 4.92
293.15 K, x2 = 0.7 | 851.41 | – | 5.419
293.15 K, x2 = 0.7996 | 842.45 | – | 5.924
293.15 K, x2 = 0.8999 | 832.71 | – | 6.447
298.15 K, x2 = 0 | 898.04 | 27.88 | 3.345
298.15 K, x2 = 0.1001 | 891.87 | 27.82 | 3.271
298.15 K, x2 = 0.199 | 885.48 | – | 3.342
298.15 K, x2 = 0.1997 | – | 27.69 | –
298.15 K, x2 = 0.2998 | 878.72 | 27.48 | 3.475
298.15 K, x2 = 0.3997 | 871.68 | 27.35 | 3.686
298.15 K, x2 = 0.4997 | 864.19 | 27.15 | 3.909
298.15 K, x2 = 0.6002 | 856.3 | 27.02 | 4.218
298.15 K, x2 = 0.7 | 847.82 | 26.79 | 4.611
298.15 K, x2 = 0.7996 | 838.88 | 26.56 | 5.028
298.15 K, x2 = 0.8999 | 829.21 | 26.36 | 5.454
303.15 K, x2 = 0 | 894.48 | – | 3.004
303.15 K, x2 = 0.1001 | 888.23 | – | 2.913
303.15 K, x2 = 0.199 | 881.84 | – | 2.963
303.15 K, x2 = 0.2998 | 875.06 | – | 3.066
303.15 K, x2 = 0.3997 | 868.01 | – | 3.238
303.15 K, x2 = 0.4997 | 860.52 | – | 3.414
303.15 K, x2 = 0.6002 | 852.65 | – | 3.657
303.15 K, x2 = 0.7 | 844.21 | – | 3.967
303.15 K, x2 = 0.7996 | 835.28 | – | 4.304
303.15 K, x2 = 0.8999 | 825.66 | – | 4.649
308.15 K, x2 = 0 | 890.92 | – | 2.711
308.15 K, x2 = 0.1001 | 884.58 | – | 2.609
308.15 K, x2 = 0.199 | 878.15 | – | 2.642
308.15 K, x2 = 0.2998 | 871.37 | – | 2.721
308.15 K, x2 = 0.3997 | 864.33 | – | 2.862
308.15 K, x2 = 0.4997 | 856.84 | – | 3
308.15 K, x2 = 0.6002 | 848.97 | – | 3.194
308.15 K, x2 = 0.7 | 840.56 | – | 3.439
308.15 K, x2 = 0.7996 | 831.66 | – | 3.711
308.15 K, x2 = 0.8999 | 822.07 | – | 3.992
313.15 K, x2 = 0 | 887.35 | – | 2.458
313.15 K, x2 = 0.1001 | 880.92 | – | 2.347
313.15 K, x2 = 0.199 | 874.46 | – | 2.366
313.15 K, x2 = 0.2998 | 867.67 | – | 2.427
313.15 K, x2 = 0.3997 | 860.62 | – | 2.542
313.15 K, x2 = 0.4997 | 853.13 | – | 2.653
313.15 K, x2 = 0.6002 | 845.27 | – | 2.807
313.15 K, x2 = 0.7 | 836.88 | – | 3.001
313.15 K, x2 = 0.7996 | 828.01 | – | 3.22
313.15 K, x2 = 0.8999 | 818.46 | – | 3.45
318.15 K, x2 = 0 | 883.77 | – | 2.237
318.15 K, x2 = 0.1001 | 877.24 | – | 2.121
318.15 K, x2 = 0.199 | 870.75 | – | 2.129
318.15 K, x2 = 0.2998 | 863.95 | – | 2.175
318.15 K, x2 = 0.3997 | 856.89 | – | 2.269
318.15 K, x2 = 0.4997 | 849.4 | – | 2.359
318.15 K, x2 = 0.6002 | 841.54 | – | 2.481
318.15 K, x2 = 0.7 | 833.18 | – | 2.636
318.15 K, x2 = 0.7996 | 824.33 | – | 2.813
318.15 K, x2 = 0.8999 | 814.8 | – | 3.002
323.15 K, x2 = 0 | 880.19 | – | 2.045
323.15 K, x2 = 0.1001 | 873.55 | – | 1.925
323.15 K, x2 = 0.199 | 867.02 | – | 1.925
323.15 K, x2 = 0.2998 | 860.2 | – | 1.958
323.15 K, x2 = 0.3997 | 853.14 | – | 2.035
323.15 K, x2 = 0.4997 | 845.65 | – | 2.107
323.15 K, x2 = 0.6002 | 837.79 | – | 2.205
323.15 K, x2 = 0.7 | 829.46 | – | 2.329
323.15 K, x2 = 0.7996 | 820.62 | – | 2.472
323.15 K, x2 = 0.8999 | 811.12 | – | 2.626
328.15 K, x2 = 0 | 876.6 | – | 1.876
328.15 K, x2 = 0.1001 | 869.84 | – | 1.754
328.15 K, x2 = 0.199 | 863.27 | – | 1.745
328.15 K, x2 = 0.2998 | 856.43 | – | 1.769
328.15 K, x2 = 0.3997 | 849.36 | – | 1.833
328.15 K, x2 = 0.4997 | 841.86 | – | 1.891
328.15 K, x2 = 0.6002 | 834.01 | – | 1.97
328.15 K, x2 = 0.7 | 825.68 | – | 2.069
328.15 K, x2 = 0.7996 | 816.87 | – | 2.184
328.15 K, x2 = 0.8999 | 807.4 | – | 2.311
333.15 K, x2 = 0 | 873.01 | – | 1.728
333.15 K, x2 = 0.1001 | 866.11 | – | 1.603
333.15 K, x2 = 0.199 | 859.5 | – | 1.589
333.15 K, x2 = 0.2998 | 852.63 | – | 1.605
333.15 K, x2 = 0.3997 | 845.56 | – | 1.658
333.15 K, x2 = 0.4997 | 838.05 | – | 1.704
333.15 K, x2 = 0.6002 | 830.19 | – | 1.767
333.15 K, x2 = 0.7 | 821.88 | – | 1.847
333.15 K, x2 = 0.7996 | 813.08 | – | 1.938
333.15 K, x2 = 0.8999 | 803.64 | – | 2.044
